# According to the supplement of paper PMC10307832:
# Experiments:
# Experiment in all cases: relative viability (nuclei count vs DMSO), 5 days (fraction); higher = more cells survive
# [1] = compound: O=S(=O)(c1ccccc1)N(CC(F)(F)F)c1ccc(C(O)(C(F)(F)F)C(F)(F)F)cc1 + CC(=O)Nc1cccc(-n2c(=O)n(C3CC3)c(=O)c3c(Nc4ccc(I)cc4F)n(C)c(=O)c(C)c32)c1 [Trametinib] (partner 0.02 µM)
# Outline: (§1)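 Lung cancer cell lines, seeded in 1536-well plates, were treated the following day by pin tool with a single drug or with five library-drug doses (not always all listed) in √10 steps on top of a fixed anchor-drug dose. Cells were fixed and nuclei stained in one step after 5 days, and nuclei were counted. Relative viability is the nuclei count for treated wells divided by that for vehicle wells, reported as medians of duplicate plates.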
# [2] = compound: O=S(=O)(c1ccccc1)N(CC(F)(F)F)c1ccc(C(O)(C(F)(F)F)C(F)(F)F)cc1 + O=C(c1cc(Cc2n[nH]c(=O)c3ccccc23)ccc1F)N1CCN(C(=O)C2CC2)CC1 [Olaparib] (partner 8 µM)
# Outline: as §1
# RO-3306 + Linsitinib = compound: C1=CC2=C(C=CC(=C2)C=C3C(=O)NC(=NCC4=CC=CS4)S3)N=C1 [RO-3306] + C[C@]1(O)C[C@@H](c2nc(-c3ccc4ccc(-c5ccccc5)nc4c3)c3c(N)nccn32)C1 [Linsitinib] (partner 1 µM)
# Outline: as §1
# RO-3306 + Phenformin = compound: C1=CC2=C(C=CC(=C2)C=C3C(=O)NC(=NCC4=CC=CS4)S3)N=C1 [RO-3306] + N=C(N)NC(=N)NCCc1ccccc1 [Phenformin] (partner 250 µM)
# Outline: as §1
# [3] = compound: O=S(=O)(c1ccccc1)N(CC(F)(F)F)c1ccc(C(O)(C(F)(F)F)C(F)(F)F)cc1 + C[C@]1(O)C[C@@H](c2nc(-c3ccc4ccc(-c5ccccc5)nc4c3)c3c(N)nccn32)C1 [Linsitinib] (partner 1 µM)
# Outline: as §1
Cell Line,relative viability ([1]; first compound 0.8 µM),relative viability ([1]; first compound 2.53 µM),relative viability ([1]; first compound 8 µM),relative viability ([2]; first compound 0.8 µM),relative viability ([2]; first compound 2.53 µM),relative viability ([2]; first compound 8 µM),relative viability (RO-3306 + Linsitinib; first compound 0.01 µM),relative viability (RO-3306 + Linsitinib; first compound 0.03162 µM),relative viability (RO-3306 + Linsitinib; first compound 0.1 µM),relative viability (RO-3306 + Linsitinib; first compound 0.3162 µM),relative viability (RO-3306 + Linsitinib; first compound 1 µM),relative viability (RO-3306 + Phenformin; first compound 0.01 µM),relative viability (RO-3306 + Phenformin; first compound 0.03162 µM),relative viability (RO-3306 + Phenformin; first compound 0.1 µM),relative viability (RO-3306 + Phenformin; first compound 0.3162 µM),relative viability (RO-3306 + Phenformin; first compound 1 µM),relative viability ([3]; first compound 0.8 µM),relative viability ([3]; first compound 2.53 µM),relative viability ([3]; first compound 8 µM)
HCC-78,0.666,0.575,0.689,0.908,0.816,0.765,0.481,0.43,0.447,0.734,0.47,0.705,0.586,0.642,0.723,0.696,0.45,0.426,0.444
HCC-366,0.469,0.335,0.23,0.414,0.37,0.281,0.531,0.405,0.594,0.886,0.569,0.644,0.547,0.65,0.613,0.63,0.922,0.601,0.649
HCC-827,0.527,0.503,0.244,0.612,0.627,0.63,1.01,0.916,0.99,0.959,0.992,0.406,0.308,0.407,0.381,0.408,1.03,0.954,0.938
HOP-62,0.391,0.297,0.355,0.226,0.49,0.392,0.951,0.985,0.892,0.978,0.973,0.694,0.405,0.777,0.714,0.659,1.14,0.607,0.836
IA-LM,–,–,–,0.94,0.651,0.681,0.559,–,0.56,0.571,0.809,–,–,–,–,–,0.656,0.34,0.397
LC-2-ad,0.881,0.884,0.758,0.689,0.675,0.674,0.902,0.757,0.813,0.833,0.817,0.538,0.476,0.492,0.614,0.562,0.701,0.831,0.816
LCLC-97TM1,–,0.234,0.165,–,0.355,0.257,–,0.167,0.203,0.202,0.162,0.395,0.442,0.45,0.455,0.472,0.197,0.179,0.202
LCLC-103H,0.71,0.731,0.739,0.813,0.737,0.772,1.03,0.934,1.16,1.05,1.05,0.36,0.27,0.298,0.342,0.328,1.06,1.17,0.936
LK-2,0.69,0.548,0.704,0.918,0.845,0.816,0.552,0.495,0.635,0.425,0.554,0.445,–,0.312,0.499,0.344,0.643,0.553,0.301
